Data from patent publication EP1129097B1, “NOVEL TYPE CONDENSED PYRIDAZINONE COMPOUNDS” (GYOGYSZERKUTATO INTEZET KFT., priority 1998, dated 2000).

How the values were obtained:
[1] = test system: scopolamine-induced memory-deficit in rats; test: passive avoidance test, counter-balancing scopolamine-induced memory-deficit; format: in vivo; conditions: oral doses of 50 mg/kg
Procedure: The memory-enhancing effect of the compounds according to the invention was measured by counter-balancing the scopolamine-induced memory-deficit in rats, with oral doses of 50 mg/kg, in the passive avoidance test published by Cumin, R. et al. [Psychopharmacology, 78, 104 (1982)].

AMPA = test: AMPA-induced spreading depression of chick retina; conditions: concentration of 20 µM
Procedure: The AMPA antagonistic effect of the compounds was also tested on spreading depression of chick retina (Sheardown, M. J.: Brain Res., 1993, 607, 189) in a concentration of 20 µM.

| SMILES | Memory improvement compared to amnesic control (%) [1] [%] | Antagonistic effect on AMPA-induced spreading depression (%) (AMPA) |
| --- | --- | --- |
| O=c1c2c(cnn1CC=Cc1ccccc1)N(Cc1ccccc1)CCCO2 [Example 7, 5-Benzyl-8-cynnamyl-2,3,4,5-tetrahydro-9(8H)-pyridazino[4,5-b] [1,5]oxazepinone] | 250 | 16 |
| Cn1ncc2c(c1=O)SCCNC2C(=O)c1ccccc1 (stereo not shown) [Example 3, 5-Benzoyl-8-methyl-2,3,4,5-tetrahydro-9(8H)-pyridazino[4,5-b][1,5]thiazepinone] | 100 | 10 |
